Our source for the Activity and IC50 values is ChEMBL document CHEMBL2321717, “Synthesis of novel estrogen receptor antagonists using metal-catalyzed coupling reactions and characterization of their biological activity” (J Med Chem, 2013).

The target in assay [1] is Estrogen receptor alpha (Homo sapiens) (UniProt P03372). As to the kind of experiment: Agonist activity at LBD of ERalpha receptor in human HeLa cells assessed as induction of receptor-SRC-1 interaction at 100 nM after 20 to 24 hrs by luciferase reporter gene assay. A general note: Reporter assays use an easily measured gene product as a stand-in for the process of interest.

The target is the same in assay [2]. In words: Agonist activity at ERalpha receptor in human HeLa cells assessed as activation of ERalpha-based transcription at 100 nM after 20 to 24 hrs by luciferase reporter gene assay.
The next assay addresses T1, Estrogen receptor (Homo sapiens, UniProt P03372).
T1 sequence (P03372 whole entry): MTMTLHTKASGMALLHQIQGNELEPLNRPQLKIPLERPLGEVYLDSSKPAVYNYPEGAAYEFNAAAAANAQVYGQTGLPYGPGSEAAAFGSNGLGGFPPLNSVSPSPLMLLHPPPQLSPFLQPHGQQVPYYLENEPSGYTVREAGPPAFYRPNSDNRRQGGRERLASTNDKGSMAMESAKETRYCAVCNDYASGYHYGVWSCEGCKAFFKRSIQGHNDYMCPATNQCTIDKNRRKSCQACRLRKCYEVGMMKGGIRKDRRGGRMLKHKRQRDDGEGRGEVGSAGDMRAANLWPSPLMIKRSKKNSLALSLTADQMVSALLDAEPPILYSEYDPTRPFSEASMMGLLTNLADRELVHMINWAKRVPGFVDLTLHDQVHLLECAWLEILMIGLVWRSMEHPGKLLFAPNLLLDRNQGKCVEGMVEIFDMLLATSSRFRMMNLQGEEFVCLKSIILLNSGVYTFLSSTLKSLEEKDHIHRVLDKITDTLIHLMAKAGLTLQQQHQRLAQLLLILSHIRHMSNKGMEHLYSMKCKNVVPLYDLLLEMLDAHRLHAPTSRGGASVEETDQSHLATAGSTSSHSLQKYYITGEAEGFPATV

Assay [3] deals with Estrogen receptor alpha (Homo sapiens) (UniProt P03372). In words: Agonist activity at ERalpha receptor in human MCF7 cells assessed as stimulation of cell proliferation after 6 days by crystal violet staining method.
For assay [4] the target is unchanged. As to the kind of experiment: Agonist activity at ERalpha receptor in human HepG2 cells assessed as activation of ERalpha-based transcription at 100 nM after 20 to 24 hrs by luciferase reporter gene assay.
The target is the same in assay [5]. In words: Antagonist activity at ERalpha receptor in human HeLa cells assessed as inhibition of E2-induced response after 20 to 24 hrs by luciferase reporter gene assay.
The next assay addresses Estrogen receptor beta (Homo sapiens, UniProt Q92731).
In assay [6] the target is Estrogen receptor alpha (Homo sapiens) (UniProt P03372). As to the kind of experiment: Partial agonist activity at ERalpha receptor in human HeLa cells assessed as activation of ERalpha-based transcription at 100 nM after 20 to 24 hrs by luciferase reporter gene assay.
The subject of assay [7] is MDA-MB-231. As to the kind of experiment: Inhibition of cell proliferation in human ERalpha receptor negative MDA-MB-231 cells after 6 days by crystal violet staining method. Type of assay: functional, cell-based.
Assay [8] concerns MDA-MB-231. As to the kind of experiment: Stimulation of cell proliferation in human ERalpha receptor negative MDA-MB-231 cells after 6 days by crystal violet staining method. Type of assay: functional, cell-based.

Activity calls are given as the source filed them. No cut-off for these calls is given here.

Estrogen receptor beta, sequence (Q92731 whole entry): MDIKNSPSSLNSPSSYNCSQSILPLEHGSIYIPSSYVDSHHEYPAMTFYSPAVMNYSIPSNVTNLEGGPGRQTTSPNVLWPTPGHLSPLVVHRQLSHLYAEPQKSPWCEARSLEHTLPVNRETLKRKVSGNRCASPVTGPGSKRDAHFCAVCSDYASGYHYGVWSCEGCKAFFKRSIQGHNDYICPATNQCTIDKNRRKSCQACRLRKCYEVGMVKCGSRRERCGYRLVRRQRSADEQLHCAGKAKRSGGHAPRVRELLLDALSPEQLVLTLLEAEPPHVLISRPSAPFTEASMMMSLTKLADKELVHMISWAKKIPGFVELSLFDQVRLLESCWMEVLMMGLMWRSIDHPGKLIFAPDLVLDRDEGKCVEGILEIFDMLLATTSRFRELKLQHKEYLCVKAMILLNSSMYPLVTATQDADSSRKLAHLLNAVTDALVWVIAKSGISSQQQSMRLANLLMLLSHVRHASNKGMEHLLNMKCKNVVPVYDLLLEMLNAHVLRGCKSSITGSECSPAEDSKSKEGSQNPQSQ

In the case of `C[C@]12CC[C@@H]3c4ccc(O)cc4C[C@@H](CCCCC#Cc4ccc(-n5cccc5)cc4)[C@H]3[C@@H]1CC[C@@H]2O`, the outcome in assay [1], in [2] and in assay [3] was Active. Half-maximal inhibition at Estrogen receptor (IC50) was put at 28.3 nM.
Turning to `C[C@]12CC[C@@H]3c4ccc(O)cc4C[C@@H](CCCCc4cn(CC5COc6ccccc6O5)nn4)[C@H]3[C@@H]1CC[C@@H]2O` (some centres not stated), the Activity in [4] came out at 50%. Also, the results for the IC50 on Estrogen receptor and on Estrogen receptor beta were 24.4 nM and 41.2 nM, respectively. Further, the outcome in [5] was Active.
Consider `C[C@]12CC[C@@H]3c4ccc(O)cc4C[C@@H](CCCCC#Cc4ccc5ccccc5c4)[C@H]3[C@@H]1CC[C@@H]2O`, for which the result in assay [1], in assay [2] and in [3] was Active. Also, at Estrogen receptor, it took 176 nM to reach half-maximal inhibition (IC50).
Consider `C[C@]12CC[C@@H]3c4ccc(O)cc4C[C@@H](CCCCC#Cc4ccc(CN5CCCCC5)cc4)[C@H]3[C@@H]1CC[C@@H]2O`, for which the result in assay [1], in assay [2] and in assay [3] was Active. The same compound returned a 50% inhibitory concentration (IC50) against Estrogen receptor of 638 nM.
As to `CCOC(=O)C(Cc1ccc(C#CCCCC[C@@H]2Cc3cc(O)ccc3[C@H]3CC[C@]4(C)[C@@H](O)CC[C@H]4[C@H]23)cc1)C(=O)OCC`, the result in [1], in assay [2] and in [3] was Active. Besides, the IC50 was 126 nM against Estrogen receptor and 151 nM against Estrogen receptor beta.
Turning to `C[C@]12CC[C@@H]3c4ccc(O)cc4C[C@@H](CCCCC#Cc4ccc(-c5ccno5)cc4)[C@H]3[C@@H]1CC[C@@H]2O`, in assay [4], the Activity was found to be 50%. Moreover, the result in assay [2] and in [6] was Active. Further, the result with MDA-MB-231 [7] and with MDA-MB-231 [8] was inactive.
For the compound `CC(C)(C)OC(=O)N1CCN(c2ccc(C#CCCCC[C@@H]3Cc4cc(O)ccc4[C@H]4CC[C@]5(C)[C@@H](O)CC[C@H]5[C@H]34)cc2)CC1`, the outcome in assay [2] and in assay [6] was Active. For the same compound, the IC50 at Estrogen receptor was 567 nM; on Estrogen receptor beta, 436 nM. The result with MDA-MB-231 [7] and in the assay with MDA-MB-231 [8] was inactive.
As to `CCOC(=O)CC(=O)c1ccc(C#CCCCC[C@@H]2Cc3cc(O)ccc3[C@H]3CC[C@]4(C)[C@@H](O)CC[C@H]4[C@H]23)cc1`, the outcome in assay [1], in [2] and in assay [3] was Active. Besides, the IC50 worked out at 96.5 nM at Estrogen receptor and 185 nM at Estrogen receptor beta.

What is called IC50 is the point on the concentration scale where inhibition reaches its midpoint. A lower IC50 goes with higher potency.
